Reference: patent US8486462B2, “Glycoside having 4-methylergost-7-en-3-ol skeleton and hyperglycemia improving agent” (Morinaga Milk Industry Co., Ltd., priority 2004, dated 2013)
Where two headings read alike, the source gives them in different places.

Tests used:
[1] = system: db/db mice; conditions: for Hemoglobin A1c relative levels (%) 35th day from the administration: db/db mice, negative sample = 100
Procedure: As type-II diabetes model mice, 6-week old male db/db mice (purchased from Clea Japan, Inc.) were used. These mice were divided into groups, each consisting of 7 animals. The test sample was dissolved in DMSO, and the concentration of 3-O-β-D-glucopyranosyl-4-methylergost-7-en-3-ol was adjusted to 1, 5 and 15 μg/mL with physiological saline. The final DMSO concentration was adjusted to 0.2%. The type-II diabetes model mice were orally administered with 1 mL of the test sample solution once day everyday with a sonde. […] On the 35th day from the start of the administration, hemoglobin A1c levels were measured by using DCA 2000 (Bayer-Sankyo Co., Ltd.).

[2] = system: db/db mice; test: Test Example 1: hyperglycemia improving effect, random and fasting blood glucose levels in type-II diabetes model mice; type: in vivo; conditions: oral 1 mL of 15 μg/mL once a day, vs negative sample
Procedure: The final DMSO concentration was adjusted to 0.2%. The type-II diabetes model mice were orally administered 1 mL of the test sample solution once a day everyday with a sonde. […] Fasting blood glucose levels and random blood glucose levels were measured over time using Antisense II (Bayer-Sankyo Co., Ltd.). The fasting blood glucose levels were measured after 15 hours of fasting.

Question: Which “Hemoglobin A1c relative levels (%) 35th day from the administration” value ([1]; 1 μg oral once a day) does the source give for `CC1C(O[C@@H]2O[C@H](CO)[C@@H](O)[C@H](O)[C@H]2O)CC[C@@]2(C)C1CC=C1[C@@H]3CC[C@H]([C@H](C)CC[C@H](C)C(C)C)[C@@]3(C)CC[C@@H]12` (stereo partly drawn) [compound 1, 3-O-β-D-glucopyranosyl-4-methylergost-7-en-3-ol] here?
Answer: 98.6 ± 7.3%

Question: What about the “Hemoglobin A1c relative levels (%) 35th day from the administration” value ([1]; 5 μg oral once a day) of the same compound?
Answer: 89.6 ± 7.9 %

Question: What about the “Hemoglobin A1c relative levels (%) 35th day from the administration” value ([1]; 15 μg oral once a day) of the same compound?
Answer: 73.5 ± 8.6 %

Question: What about the “hemoglobin A1c levels in comparison with negative sample” value ([1]; repetitive administration of 5 or 15 μg, 35th day) of the same compound?
Answer: statistically significant decreases

Question: What about the “fasting blood glucose levels, changes over time” value ([2]; after 15 hours of fasting) of the same compound?
Answer: effect of suppressing the increases in blood glucose levels was clearly observed

Question: What about the “random blood glucose levels, changes over time” value [2] of the same compound?
Answer: effect of suppressing the increases in blood glucose levels was clearly observed
